Experimental data: patent US6869589B1, “Cryptate compounds and methods for diagnosis and therapy” (Australian Nuclear Science & Technology Organization, priority 1999, dated 2005)
Read-outs that look alike come from different tables or passages of the source.

Assays:
[1] = Biodistribution of ^64Cu complexes in balb/c mice; settings: for Clearance of the complex (biodistribution, in words): if the ligand detaches from the antibody
Description: (§1) The biodistribution of the ^64Cu complexes of compounds (1), (3) and (4) (0.10 ml intravenous injection) were evaluated in balb/c mice (5 animals per time point) at 3, 5, 10, 15, 20 and 30 minute time intervals. Biodistribution studies were performed in duplicate.

[2] = Serum stability of ^67Cu complex in human plasma at 37° C., size exclusion chromatography; format: in vitro ADME; settings: first 174 hours
Description: Serum stability studies were conducted by incubating a ^67Cu complex of related species (4) in human plasma at 37° C. [drawing 11]
At various time intervals, the complex was separated from the plasma by size exclusion chromatography and the complex breakdown was assessed. […] (FIGS. 1a and 1b).

[3] = mouse, in vivo
Description: as §1

[4] = Effect of pH on complexation of ^64Cu by compound (3), monitored by ITLC-SG; format: physicochemical
Description: The effect of pH on complexation of ^64Cu by compound (3) was investigated. Compound (3) was diluted into buffers of pH 3.0, 4.0, 5.0, 6.0, 7.0, 8.0 and 9.0. A sufficient amount of ^64Cu was added and the rate of complexation was monitored at (t=1, 2.5, 5, 10, 60 and 90 mins) (see method below) by Instant Thin Layer Chromatography (ITLC-SG). Complete complexation (>98%) was achieved within 1 min for all pH ≧4.0. The rate of complexation at pH 3.0 was slower. (FIG. 2).
Monitoring Complexation by ITLC-SG
ITLC-SG strips (10 cm×0.8 cm) were spotted with ˜1 μL of reaction mixture 1 cm from the bottom of the strip (origin) and were developed in a solvent containing 0.1 M sodium acetate (pH 4.5): ethanol=9:1. ^64Cu-compound (3) remains at the origin (Rf=0.0), and “free” ^64Cu appears at the solvent front (Rf=1.0).

Structure (SMILES): C1CNCC2CNCCNCC(CN1)CNCCNC2.[64Cu+2] [^64Cu-labelled compound (4)]
- % injected dose per gram ([1]; BLADDER, 3 MIN): 13.15 % INJECTED DOSE PER GRAM
- % injected dose per gram ([1]; BLADDER, 5 MIN): 28.05 % INJECTED DOSE PER GRAM
- % injected dose per gram ([1]; BLADDER, 10 MIN): 69.91 % INJECTED DOSE PER GRAM
- % injected dose per gram ([1]; BLADDER, 15 MIN): 8.17 % INJECTED DOSE PER GRAM
- % injected dose per gram ([1]; BLADDER, 20 MIN): 16.38 % INJECTED DOSE PER GRAM
- % injected dose per gram ([1]; BLADDER, 30 MIN): 25.38 % INJECTED DOSE PER GRAM
- % injected dose per gram ([1]; BLOOD, 3 MIN): 8.25 % INJECTED DOSE PER GRAM
- % injected dose per gram ([1]; BLOOD, 5 MIN): 7.08 % INJECTED DOSE PER GRAM
- % injected dose per gram ([1]; BLOOD, 10 MIN): 4.41 % INJECTED DOSE PER GRAM
- % injected dose per gram ([1]; BLOOD, 15 MIN): 2.71 % INJECTED DOSE PER GRAM
- % injected dose per gram ([1]; BLOOD, 20 MIN): 1.40 % INJECTED DOSE PER GRAM
- % injected dose per gram ([1]; BLOOD, 30 MIN): 1.07 % INJECTED DOSE PER GRAM
- % injected dose per gram ([1]; BONE, 3 MIN): 1.60 % INJECTED DOSE PER GRAM
- % injected dose per gram ([1]; BONE, 5 MIN): 1.56 % INJECTED DOSE PER GRAM
- % injected dose per gram ([1]; BONE, 10 MIN): 1.28 % INJECTED DOSE PER GRAM
- % injected dose per gram ([1]; BONE, 15 MIN): 1.60 % INJECTED DOSE PER GRAM
- % injected dose per gram ([1]; BONE, 20 MIN): 0.89 % INJECTED DOSE PER GRAM
- % injected dose per gram ([1]; BONE, 30 MIN): 0.65 % INJECTED DOSE PER GRAM
- % injected dose per gram ([1]; GIT, 3 MIN): 2.62 % INJECTED DOSE PER GRAM
- % injected dose per gram ([1]; GIT, 5 MIN): 2.16 % INJECTED DOSE PER GRAM
- % injected dose per gram ([1]; GIT, 10 MIN): 1.49 % INJECTED DOSE PER GRAM
- % injected dose per gram ([1]; GIT, 15 MIN): 1.07 % INJECTED DOSE PER GRAM
- % injected dose per gram ([1]; GIT, 20 MIN): 0.89 % INJECTED DOSE PER GRAM
- % injected dose per gram ([1]; GIT, 30 MIN): 0.80 % INJECTED DOSE PER GRAM
- % injected dose per gram ([1]; HEART, 3 MIN): 3.25 % INJECTED DOSE PER GRAM
- % injected dose per gram ([1]; HEART, 5 MIN): 2.66 % INJECTED DOSE PER GRAM
- % injected dose per gram ([1]; HEART, 10 MIN): 1.60 % INJECTED DOSE PER GRAM
- % injected dose per gram ([1]; HEART, 15 MIN): 1.08 % INJECTED DOSE PER GRAM
- % injected dose per gram ([1]; HEART, 20 MIN): 0.51 % INJECTED DOSE PER GRAM
- % injected dose per gram ([1]; HEART, 30 MIN): 0.47 % INJECTED DOSE PER GRAM
- % injected dose per gram ([1]; KIDNEY, 3 MIN): 20.08 % INJECTED DOSE PER GRAM
- % injected dose per gram ([1]; KIDNEY, 5 MIN): 18.62 % INJECTED DOSE PER GRAM
- % injected dose per gram ([1]; KIDNEY, 10 MIN): 14.79 % INJECTED DOSE PER GRAM
- % injected dose per gram ([1]; KIDNEY, 15 MIN): 7.52 % INJECTED DOSE PER GRAM
- % injected dose per gram ([1]; KIDNEY, 20 MIN): 25.99 % INJECTED DOSE PER GRAM
- % injected dose per gram ([1]; KIDNEY, 30 MIN): 30.26 % INJECTED DOSE PER GRAM
- % injected dose per gram ([1]; LIVER, 3 MIN): 1.81 % INJECTED DOSE PER GRAM
- % injected dose per gram ([1]; LIVER, 5 MIN): 1.59 % INJECTED DOSE PER GRAM
- % injected dose per gram ([1]; LIVER, 10 MIN): 1.16 % INJECTED DOSE PER GRAM
- % injected dose per gram ([1]; LIVER, 15 MIN): 0.64 % INJECTED DOSE PER GRAM
- % injected dose per gram ([1]; LIVER, 20 MIN): 5.01 % INJECTED DOSE PER GRAM
- % injected dose per gram ([1]; LIVER, 30 MIN): 5.76 % INJECTED DOSE PER GRAM
- % injected dose per gram ([1]; LUNGS, 3 MIN): 5.85 % INJECTED DOSE PER GRAM
- % injected dose per gram ([1]; LUNGS, 5 MIN): 5.28 % INJECTED DOSE PER GRAM
- % injected dose per gram ([1]; LUNGS, 10 MIN): 2.84 % INJECTED DOSE PER GRAM
- % injected dose per gram ([1]; LUNGS, 15 MIN): 2.09 % INJECTED DOSE PER GRAM
- % injected dose per gram ([1]; LUNGS, 20 MIN): 1.13 % INJECTED DOSE PER GRAM
- % injected dose per gram ([1]; LUNGS, 30 MIN): 0.92 % INJECTED DOSE PER GRAM
- % injected dose per gram ([1]; MUSCLE, 3 MIN): 1.76 % INJECTED DOSE PER GRAM
- % injected dose per gram ([1]; MUSCLE, 5 MIN): 2.10 % INJECTED DOSE PER GRAM
- % injected dose per gram ([1]; MUSCLE, 10 MIN): 1.24 % INJECTED DOSE PER GRAM
- % injected dose per gram ([1]; MUSCLE, 15 MIN): 1.73 % INJECTED DOSE PER GRAM
- % injected dose per gram ([1]; MUSCLE, 20 MIN): 0.36 % INJECTED DOSE PER GRAM
- % injected dose per gram ([1]; MUSCLE, 30 MIN): 1.27 % INJECTED DOSE PER GRAM
- % injected dose per gram ([1]; SKIN, 3 MIN): 5.98 % INJECTED DOSE PER GRAM
- % injected dose per gram ([1]; SKIN, 5 MIN): 6.46 % INJECTED DOSE PER GRAM
- % injected dose per gram ([1]; SKIN, 10 MIN): 4.21 % INJECTED DOSE PER GRAM
- % injected dose per gram ([1]; SKIN, 15 MIN): 2.76 % INJECTED DOSE PER GRAM
- % injected dose per gram ([1]; SKIN, 20 MIN): 1.73 % INJECTED DOSE PER GRAM
- % injected dose per gram ([1]; SKIN, 30 MIN): 1.42 % INJECTED DOSE PER GRAM
- % injected dose per gram ([1]; SPLEEN, 3 MIN): 2.26 % INJECTED DOSE PER GRAM
- % injected dose per gram ([1]; SPLEEN, 5 MIN): 2.17 % INJECTED DOSE PER GRAM
- % injected dose per gram ([1]; SPLEEN, 10 MIN): 1.28 % INJECTED DOSE PER GRAM
- % injected dose per gram ([1]; SPLEEN, 15 MIN): 0.67 % INJECTED DOSE PER GRAM
- % injected dose per gram ([1]; SPLEEN, 20 MIN): 0.52 % INJECTED DOSE PER GRAM
- % injected dose per gram ([1]; SPLEEN, 30 MIN): 0.35 % INJECTED DOSE PER GRAM
- % injected dose per gram ([1]; STOMACH, 3 MIN): 3.53 % INJECTED DOSE PER GRAM
- % injected dose per gram ([1]; STOMACH, 5 MIN): 3.04 % INJECTED DOSE PER GRAM
- % injected dose per gram ([1]; STOMACH, 10 MIN): 1.84 % INJECTED DOSE PER GRAM
- % injected dose per gram ([1]; STOMACH, 15 MIN): 0.89 % INJECTED DOSE PER GRAM
- % injected dose per gram ([1]; STOMACH, 20 MIN): 0.70 % INJECTED DOSE PER GRAM
- % injected dose per gram ([1]; STOMACH, 30 MIN): 0.65 % INJECTED DOSE PER GRAM

Structure (SMILES): C1CNCC2CNCCNCC(CN1)CNCCNC2.[67Cu+2] [^67Cu complex of compound (4)]
- Copper lost from the chelator [2]: no more than 2%

Structure (SMILES): NC12CNCCNCC(N)(CNCCNC1)CNCCNC2 [compound (1)]
- Clearance of the complex (biodistribution, in words) [1]: clear rapidly from the system

Structure (SMILES): NC12C[N]3CC[N]4CC5(NCc6ccc([N+](=O)[O-])cc6)C[N]6CC[N](C1)[Cu]3461[N](CC[N]1C5)C2 [compound (2)]
- Clearance of the complex (biodistribution, in words) [1]: clear rapidly from the system

Structure (SMILES): Nc1ccc(CNC23CNCCNCC(N)(CNCCNC2)CNCCNC3)cc1 [compound (3)]
- Clearance of the complex (biodistribution, in words) [3]: clear rapidly from the system
- Time to complete complexation of ^64Cu ([4]; all pH ≧4.0): ≤ 1 min
- Complexation of ^64Cu (complete complexation) ([4]; all pH ≧4.0, within 1 min, ITLC-SG): > 98%
- Rate of complexation of ^64Cu ([4]; pH 3.0, compared with pH ≧4.0): slower
